According to patent publication US11737999B2, “Amino acid compositions and methods for the treatment of post-acute sequelae of COVID-19” (AXCELLA HEALTH INC., priority 2021, dated 2023):

Experiments:
Procollagen Iα1 = Procollagen Iα1 secretion (ELISA) in primary human hepatic stellate cells stimulated with TGFβ1; assay type: cell-based; settings: for Procollagen lα1 Secretion (Fold Change of 1X), Mean: first donor; for Procollagen lα1 Secretion (Fold Change of 1X), Mean / Procollagen Iα1 Secretion, Mean: single amino acid
IL-6 [1] = experiment: IL-6 cytokine secretion in primary human hepatic stellate cells stimulated with TNFα; assay type: cell-based; settings: for Fold Change IL-6 Secretion Normalized Per Cell: Isoleucine 66 μM (plasma level, reference)
MCP-1 = MCP-1 chemokine secretion in primary human hepatic stellate cells stimulated with TNFα; assay type: cell-based
TNF-α = experiment: LPS-induced TNF-α secretion in primary human monocyte-derived macrophages; settings: for TNF-α Measurements Mean (baseline subtracted): 0.15 ng/mL LPS
Col1a1 = Col1a1 gene expression (RT-qPCR) in primary human hepatic stellate cells stimulated with TGFβ1; assay type: cell-based; settings: for Col1a1 Fold Expression Relative to Control, Mean: single amino acid
IL-6 [2] = experiment: LPS-induced IL-6 secretion in primary human monocyte-derived macrophages; settings: for IL-6 Measurements, Mean: LPS, baseline subtracted values
MCP1/CCL2 = MCP1/CCL2 secretion by ELISA in primary human hepatocytes with FFA + TNFα; assay type: cell-based
[3] = hepatic stellate cells, three donors
[4] = Donor 1, Conc. 66 μM (baseline)

## CC[C@H](C)[C@H](N)C(=O)O [Isoleucine, L-Isoleucine]
Procollagen Iα1; 1328 μM
  Procollagen lα1 Secretion (Fold Change of 1X), Mean: 0.9229 fold
Procollagen Iα1; 3320 μM
  Procollagen lα1 Secretion (Fold Change of 1X), Mean: 1.1366 fold
Procollagen Iα1; 6639 μM
  Procollagen lα1 Secretion (Fold Change of 1X), Mean: 1.2144 fold
Procollagen Iα1; [3]
  procollagen Iα1 secretion (summary in words): significantly increased procollagen Iα1 secretion in two of three donors
Procollagen Iα1; second donor, Conc. 66 μM (baseline)
  Procollagen Iα1 Secretion, Mean: 1.0000 Fold Change of 1×
Procollagen Iα1; second donor, Conc. 1328 μM
  Procollagen Iα1 Secretion, Mean: 1.4811 Fold Change of 1×
Procollagen Iα1; second donor, Conc. 3320 μM
  Procollagen Iα1 Secretion, Mean: 1.4940 Fold Change of 1×
Procollagen Iα1; second donor, Conc. 6639 μM
  Procollagen Iα1 Secretion, Mean: 1.5423 Fold Change of 1×
Procollagen Iα1; third donor, Conc. 66 μM (baseline)
  Procollagen Iα1 Secretion, Mean: 1.0000 Fold Change of 1×
Procollagen Iα1; third donor, Conc. 1328 μM
  Procollagen Iα1 Secretion, Mean: 1.2687 Fold Change of 1×
Procollagen Iα1; third donor, Conc. 3320 μM
  Procollagen Iα1 Secretion, Mean: 1.2703 Fold Change of 1×
Procollagen Iα1; third donor, Conc. 6639 μM
  Procollagen Iα1 Secretion, Mean: 1.4465 Fold Change of 1×
IL-6 [1]; donor 1
  Fold Change IL-6 Secretion Normalized Per Cell: 1.0000 fold change
IL-6 [1]; donor 2
  Fold Change IL-6 Secretion Normalized Per Cell: 1.0000 fold change
IL-6 [1]; hepatic stellate cells, two donors
  IL-6 secretion (summary in words): no significant effect on IL-6 secretion
MCP-1; donor 3, Conc. 66 μM
  Fold Change MCP1 Secretion Normalized Per Cell, Mean: 1.0000 Fold Change
MCP-1; donor 4, Isoleucine 66 μM (plasma level, reference)
  Fold Change MCP1 Secretion Normalized Per Cell: 1.0000 fold change
TNF-α; [4]
  TNF-α Measurements Mean (baseline subtracted): 0
TNF-α; Donor 1, Conc. 1328 μM
  TNF-α Measurements Mean (baseline subtracted): −42.68
TNF-α; Donor 1, Conc. 3320 μM
  TNF-α Measurements Mean (baseline subtracted): −96.3
TNF-α; Donor 1, Conc. 6639 μM
  TNF-α Measurements Mean (baseline subtracted): −40.95
TNF-α; Donor 2
  LPS-induced TNF-α secretion (summary in words): increased TNF-α secretion
TNF-α; Donor 2, Conc. 66 μM (baseline)
  TNF-α Measurements Mean (baseline subtracted): 4.74E−15
TNF-α; Donor 2, Conc. 1328 μM
  TNF-α Measurements Mean (baseline subtracted): 2.919
TNF-α; Donor 2, Conc. 3320 μM
  TNF-α Measurements Mean (baseline subtracted): 10.26
TNF-α; Donor 2, Conc. 6639 μM
  TNF-α Measurements Mean (baseline subtracted): 19.26
TNF-α; Donor 3, Conc. 66 μM (baseline)
  TNF-α Measurements Mean (baseline subtracted): −2.4E−15
TNF-α; Donor 3, Conc. 1328 μM
  TNF-α Measurements Mean (baseline subtracted): −6.23
TNF-α; Donor 3, Conc. 3320 μM
  TNF-α Measurements Mean (baseline subtracted): 3.309
TNF-α; Donor 3, Conc. 6639 μM
  TNF-α Measurements Mean (baseline subtracted): −1.66
Col1a1; first donor, 3320 μM
  Col1a1 Fold Expression Relative to Control, Mean: 1.10 fold
Col1a1; [3]
  Col1a1 gene expression (summary in words): did not significantly change Col1a1 gene expression in any donor
Col1a1; second donor (Table 27), 66 μM (baseline)
  Col1a1 Fold Expression Relative to Control, Mean: 1.00 fold
Col1a1; second donor (Table 27), 1328 μM
  Col1a1 Fold Expression Relative to Control, Mean: 0.97 fold
Col1a1; second donor (Table 27), 3320 μM
  Col1a1 Fold Expression Relative to Control, Mean: 0.99 fold
Col1a1; second donor (Table 27), 6639 μM
  Col1a1 Fold Expression Relative to Control, Mean: 1.03 fold
Col1a1; second donor (Table 29), 1328 μM
  Col1a1 Fold Expression Relative to Control, Mean: 0.94 fold
Col1a1; second donor (Table 29), 3320 μM
  Col1a1 Fold Expression Relative to Control, Mean: 0.94 fold
Col1a1; second donor (Table 29), 6639 μM
  Col1a1 Fold Expression Relative to Control, Mean: 1.03 fold
IL-6 [2]; [4]
  IL-6 Measurements, Mean: 0
IL-6 [2]; Donor 2, Conc. 1328 μM
  IL-6 Measurements, Mean: −2.318
IL-6 [2]; Donor 2, Conc. 3320 μM
  IL-6 Measurements, Mean: 2.305
IL-6 [2]; Donor 2, Conc. 6639 μM
  IL-6 Measurements, Mean: −1.774
IL-6 [2]; Donor 3, Conc. 3320 μM, 0.15 ng/mL LPS
  IL-6 Measurements Mean (baseline subtracted): 0
MCP1/CCL2; Donor 1, Conc. 66 μM
  MCP1 expression relative to Control, Mean: −1.2E−15
MCP1/CCL2; Donor 1, Conc. 1328 μM
  MCP1 expression relative to Control, Mean: −0.3073
MCP1/CCL2; Donor 1, Conc. 3320 μM
  MCP1 expression relative to Control, Mean: −2.417
MCP1/CCL2; Donor 1, Conc. 6639 μM
  MCP1 expression relative to Control, Mean: −0.205
MCP1/CCL2; Donor 2, Conc. 66 μM
  MCP1 expression relative to Control, Mean: 0
MCP1/CCL2; Donor 2, Conc. 1328 μM
  MCP1 expression relative to Control, Mean: 26.62
MCP1/CCL2; Donor 2, Conc. 3320 μM
  MCP1 expression relative to Control, Mean: −5.645
MCP1/CCL2; Donor 2, Conc. 6639 μM
  MCP1 expression relative to Control, Mean: 18.62
MCP1/CCL2; primary human hepatocytes, two healthy donors
  MCP1/CCL2 secretion (summary in words): did not have an effect on MCP1/CCL2 secretion
